# Reference: patent US10088484B2, “Isolated mucins and different microorganisms, and methods of use” (Massachusetts Institute of Technology, priority 2015, dated 2018)
# Tests used:
# S. sanguinis [1] = test: S. mutans / S. sanguinis competition model, S. sanguinis survival (Example 2); assay type: cell-based, Streptococcus sanguinis
# From the text: The effect of MUC5B on S. mutans and S. sanguinis competition and coexistence was examined. To examine the effect of MUC5B, a model was developed to allow sufficient competition between S. mutans and S. sanguinis (FIG. 7). The two bacteria compete when one colonizes the surface and the second bacteria is introduced after some time.
# The presence of 0.3% mucins in control medium, BHI containing 1% sucrose (S Medium), enhances S. sanguinis survival when S. mutans is the primary colonizer (FIG. 8A). * statistically significant difference determined by Student's t test (p<0.05). […] When the ratios of bacteria are equal (FIG. 8C), there is less competition, and effect of MUC5B is small. When the ratio is slightly skewed (FIG. 8B), competition increases and the protective effect of MUC5B is visible. * statistically significant difference determined by Student's t test (p<0.05). The protective effect of MUC5B may increase as inter-species competition increases. […] MUC5B may play a role in establishing a healthy oral microbiome.
# (§1) In FIG. 9, the biofilm is grown, then the supernatant is removed and the biofilm washed with PBS. To remove adherent cells, the bottom of the wells are scraped with a sterile pipette tip. Suspended cells are diluted, plated on agar and […] until colonies are visible.
# S. mutans [2] = test: S. mutans attachment and biofilm formation on glass (Example 2); assay type: cell-based, Streptococcus mutans; details: 0.3% polymer in BHI with 1% sucrose, compared to BHI with 1% sucrose
# Protocol: as §1
# As shown in FIG. 10A and FIG. 10B and FIG. 11A and FIG. 11B, salivary mucins decrease S. mutans attachment and biofilm formation. […] Error bars represent SDs. […] Scale Bars 20 μm.
# S. mutans [3] = test: S. mutans growth curve and viable cell count (Example 2); assay type: cell-based, Streptococcus mutans; details: 0.3% polymer in BHI with 1% sucrose
# From the text: As shown in FIG. 12 and FIG. 13, S. mutans survival is unaffected by salivary mucins. […] Error bars represent SDs. […] Error bars represent SDs.
# S. mutans [4] = test: CFU count assay, biofilm formation and total cells, single-species model, S. mutans; assay type: cell-based, Streptococcus mutans UA159; details: for reduction of S. mutans biofilm formation: 0.4% polymer
# Protocol: (§2) For all experiments, S. mutans (bacterial strain Streptococcus mutans UA159) and S. sanguinis (erythromycin-resistant Streptococcus sanguinis JFP36) were grown overnight in Brain Heart Infusion (BHI) medium (Becton, Dickinson and Company). Before inoculating an experiment the cells were pelleted, washed with half-strength BHI containing 1% (wt/vol) sucrose (Sigma-Aldrich Company), then resuspended in half-strength BHI containing 1% sucrose. Acid-washed glass beads (425-600 μm, Sigma-Aldrich Company) were added to the resuspended bacteria to break up bacterial aggregates then the culture was vortexed for ten pulses of two seconds each. […] All experiments were performed in chambered glass slides at 37° C. with 5% CO2.
# (§3) Equal numbers of CFU were inoculated into chambered glass slides then incubated. After a given amount of time, the supernatant was used to gently wash the biofilm to resuspend unattached cells, then the supernatant was removed. PBS was added to the wells then the biofilm was scraped using a sterile pipette tip. The supernatant and biofilm were vortexed with glass beads to individualize cells then the suspension was diluted, plated on BHI agar and incubated for 24-36 hours. […] Statistically significant differences were determined using the Student's t test, with P<0.05 considered significant.
# (§4) The effect of MUC5B on S. sanguinis and S. mutans biofilm formation in single-species models was evaluated using colony forming units to quantify surface attached cells and the total number of viable cells in the supernatant and biofilm combined. Bacteria were grown in chambered glass slides in the presence of half-strength BHI with 1% sucrose and 0.4% MUC5B. […] Half-strength BHI was used to provide consistent media conditions throughout experiments in this study. […] All comparisons of viable CFU discussed in the results are determined relative to the control with half-strength BHI and 1% sucrose.
# S. sanguinis [5] = test: CFU count assay, biofilm formation and total cells, single-species model, S. sanguinis; assay type: cell-based, Streptococcus sanguinis JFP36; details: for reduction of S. sanguinis biofilm formation: 0.4% polymer, relative to control
# Protocol: as §2, §3, §4
# S. mutans [6] = tested on: S. mutans
# Protocol: For dual-species models where S. mutans was the primary colonizer, S. mutans (10^7) was inoculated and incubated for 3 hours then S. sanguinis (10^6) was inoculated. For dual-species models where S. sanguinis was the primary colonizer, S. sanguinis (10^8) was inoculated, incubated for 3 hours, then S. mutans (10^7) was inoculated. After the secondary colonizer was inoculated, the dual-species culture was incubated until the time points indicated. For experiments quantifying biofilm formation, at the end of the experiment the supernatant was used to gently wash the biofilm to resuspend unattached cells, then the supernatant was removed. […] For experiments quantifying total cells, at the end of the experiment a sterile pipette tip was used to scrape the biofilm, then the suspension of biofilm and supernatant cells was vortexed with glass beads. […] Statistically significant differences were determined using the Student's t test, with P<0.05 considered significant.
# An in vitro competition model was used to determine the effects of MUC5B on S. mutans and S. sanguinis biofilm formation when co-cultured. […] After 4 hours of co-culture, the supernatant was removed and the number of S. mutans and S. sanguinis in the biofilm were quantified by colony forming units. […] All comparisons of viable CFU discussed in the results are determined relative to the control with half-strength BHI and 1% sucrose. […]
# S. sanguinis [7] = test: Dual-species competition model, S. mutans primary colonizer: S. sanguinis CFU; assay type: cell-based, Streptococcus sanguinis JFP36; details: for increase of live S. sanguinis cells (secondary colonizer): S. mutans primary colonizer
# Protocol: (§5) Agar was incubated for 24-36 hours.
# S. sanguinis [8] = test: Dual-species competition model, S. sanguinis primary colonizer: S. sanguinis CFU; assay type: cell-based, Streptococcus sanguinis JFP36; details: 4 hours of co-culture
# Protocol: as §5
# S. mutans [9] = test: Dual-species competition model, S. sanguinis primary colonizer: S. mutans CFU; assay type: cell-based, Streptococcus mutans UA159; details: for increase of S. mutans CFU (secondary colonizer): S. sanguinis primary colonizer
# Protocol: For dual-species models where S. mutans was the primary colonizer, S. mutans (10^7) was inoculated and incubated for 3 hours then S. sanguinis (10^6) was inoculated. For dual-species models where S. sanguinis was the primary colonizer, S. sanguinis (10^8) was inoculated, incubated for 3 hours, then S. mutans (10^7) was inoculated. After the secondary colonizer was inoculated, the dual-species culture was incubated until the time points indicated. For experiments quantifying biofilm formation, at the end of the experiment the supernatant was used to gently wash the biofilm to resuspend unattached cells, then the supernatant was removed. PBS was added to the wells then the biofilm was scraped using a sterile pipette tip. For experiments quantifying total cells, at the end of the experiment a sterile pipette tip was used to scrape the biofilm, then the suspension of biofilm and supernatant cells was vortexed with glass beads. For both experiments, cell suspensions were diluted then plated on BHI agar containing 10 μg/ml erythromycin to select for S. sanguinis and BHI agar with 1 U/ml bacitracin to select for S. mutans. Agar was incubated for 24-36 hours. […] Statistically significant differences were determined using the Student's t test, with P<0.05 considered significant.
# An in vitro competition model was used to determine the effects of MUC5B on S. mutans and S. sanguinis biofilm formation when co-cultured. In this model, the pioneering colonizer was incubated for 3 hours then the secondary colonizer was inoculated and co-cultured for 4 hours (FIG. 15). The competition model used in this study is based on previous work by Kreth et al, J. Bacteriol. 187:7193-7203 (2005). In addition, sequential inoculation allows us to study competition in models where either S. sanguinis or S. mutans is the dominant species, which is relevant to the natural environment of the oral cavity. After 4 hours of co-culture, the supernatant was removed and the number of S. mutans and S. sanguinis in the biofilm were quantified by colony forming units. This method was used to evaluate biofilm formation when S. mutans is the primary colonizer (FIG. 16A) and when S. sanguinis is the primary colonizer (FIG. 16B). All comparisons of viable CFU discussed in the results are determined relative to the control with half-strength BHI and 1% sucrose.
# To evaluate the effect of MUC5B on the viability of S. mutans and S. sanguinis in a dual-species competition model, the primary colonizer was incubated for 3 hours then inoculated the secondary colonizer and evaluated the total number of viable cells for each species over several hours (FIG. 15). […] Comparisons of viable CFU discussed in the results are determined relative to the control with half-strength BHI and 1% sucrose.
# S. mutans [10] = test: S. mutans growth curve, mono-species culture (Example 3); assay type: cell-based, Streptococcus mutans UA159
# Protocol: (§6) The suspensions were vortexed with glass beads to individualize cells, then approximately 10^6 cells were inoculated into wells of a 96-well polystyrene plate. At 2-hour intervals the bottom of the wells were scraped to remove any adherent cells, mixed, and an aliquot was removed, diluted and plated on BHI agar. Agar was incubated and CFU were counted after 24-36 hours.
# (§7) The growth of S. mutans and S. sanguinis in the same medium used for competition experiments was evaluated to determine if the observed increase in viable cells in the presence of MUC5B (FIGS. 17A-C and FIGS. 18A-C) was due to enhanced bacterial growth. […] Growth in PBS containing MUC5B was studied to better understand if S. mutans and S. sanguinis can utilize MUC5B as a nutrient source when other nutrients are limited.
# S. sanguinis [11] = test: S. sanguinis growth curve, mono-species culture (Example 3); assay type: cell-based, Streptococcus sanguinis JFP36
# Protocol: as §6, §7
substance,measurement,setting,value
MUC5B: salivary mucin MUC5B purified by FPLC from pooled human submandibular saliva,S. sanguinis survival when S. mutans is the primary colonizer,"S. sanguinis [1]; 0.3% mucins in BHI with 1% sucrose, S. sanguinis inoculated 3 hours after S. mutans, 4 hours incubation, p<0.05",enhances
same,"protective effect, ratio of bacteria slightly skewed",S. sanguinis [1]; ratio slightly skewed (FIG. 8B),visible
same,"effect on S. sanguinis / S. mutans competition, equal ratios of bacteria",S. sanguinis [1]; ratios of bacteria equal (FIG. 8C),small
same,levels of S. mutans attachment and biofilm formation on glass,S. mutans [2],significantly reduces
same,growth of S. mutans (growth curve),S. mutans [3],does not alter the growth
same,number of viable S. mutans cells (bactericidal effect),S. mutans [3]; timepoints up to 24 hours,no bactericidal effects
same,total number of viable S. mutans cells (biofilm and supernatant),S. mutans [4]; 6 hours,decreased slightly
same,reduction of S. mutans biofilm formation,"S. mutans [4]; 6 hours, relative to half-strength BHI with 1% sucrose",94%
same,S. mutans cells in the biofilm as share of total cells,"S. mutans [4]; 6 hours, with MUC5B (control without polymer 66%)",13%
same,total number of S. mutans cells,S. mutans [4]; 9 hours,no significant effect
same,reduction of S. mutans biofilm formation,"S. mutans [4]; 9 hours, relative to control",92%
same,number of viable S. sanguinis in the biofilm and supernatant,S. sanguinis [5]; 6 and 9 hours,did not change
same,reduction of S. sanguinis biofilm formation,S. sanguinis [5]; 6 hours,94%
same,reduction of S. sanguinis biofilm formation,S. sanguinis [5]; 9 hours,86%
same,decrease of S. mutans (primary colonizer) biofilm formation,"S. mutans [6]; 4 hours of co-culture, relative to control",95%
same,effect on total viable S. mutans cells,"S. mutans [6]; S. mutans primary colonizer, 5 hours of co-culture",no effect
same,increase of S. sanguinis (secondary colonizer) biofilm formation,"S. sanguinis [7]; S. mutans pioneering species, 4 hours of co-culture",313%
same,increase of live S. sanguinis cells (secondary colonizer),S. sanguinis [7]; 4 hours of co-culture,1670%
same,increase of live S. sanguinis cells (secondary colonizer),S. sanguinis [7]; 5 hours of co-culture,8700%
same,reduction of S. sanguinis (pioneering species) biofilm formation,S. sanguinis [8]; S. sanguinis pioneering species,68%
same,increase of viable S. sanguinis cells (primary colonizer),S. sanguinis [8]; S. sanguinis primary colonizer,826%
same,effect on S. mutans (secondary colonizer) biofilm formation,"S. mutans [9]; S. sanguinis pioneering species, 4 hours of co-culture",no significant effect
same,increase of S. mutans CFU (secondary colonizer),S. mutans [9]; 4 hours of co-culture,74%
same,increase of S. mutans CFU (secondary colonizer),S. mutans [9]; 5 hours of co-culture,235%
same,increase of S. mutans CFU (secondary colonizer),S. mutans [9]; 6 hours of co-culture,568%
same,effect on S. mutans growth,"S. mutans [10]; 0.4% polymer in half-strength BHI with 1% sucrose, time points up to 10 hours",slightly reduced or had no effect
same,S. mutans growth with MUC5B as nutrient source,S. mutans [10]; PBS with 0.4% MUC5B,neither bacterium can utilize MUC5B to enhance growth
same,effect on S. sanguinis growth,S. sanguinis [11]; 0.4% polymer in half-strength BHI with 1% sucrose,not significantly changed
same,S. sanguinis growth with MUC5B as nutrient source,S. sanguinis [11]; PBS with 0.4% MUC5B,neither bacterium can utilize MUC5B to enhance growth
